# Results as given in paper PMC7539557 (ACS infectious diseases, 2020).
# Where “and” joins values, the source holds several entries; their conditions need not be identical. Equal values may be shown once. Entries after “also recorded” stand apart in the source; their conditions may differ. Read-outs that look alike come from different tables or passages of the source.
# What was measured:
# MHV-A59 [1] = format: cell-based, Murine hepatitis virus; settings: for IC50: DFMO pretreatment 4 days, CPX, DEF, GC7 24h
# MHV [2] = test: Direct incubation of MHV with compound, then titering; parameters: species or system Murine hepatitis virus; settings: 10 μM for 24h, then titered
# SARS-CoV-2 = format: cell-based; settings: 5 mM DFMO, Vero-E6, MOI 0.1, 24 hpi
# MHV-A59 [3] = format: cell-based, Murine hepatitis virus
# MHV-A59 [4] = test: Plaque size measurement with DFMO applied at time of infection; format: cell-based, Murine hepatitis virus
# MHV [5] = test: MHV attachment assays; format: cell-based, Murine hepatitis virus
# HCoV-NL63 = HCoV-NL63 qPCR-based attachment assay on Vero-E6 cells; format: cell-based; settings: DFMO-treated Vero-E6 cells
# [6] = test system: SARS-CoV-2 pseudoparticles; format: cell-based; settings: DFMO-treated Vero-E6 cells
# cellular polyamines = test: Thin-layer chromatography of cell-associated polyamines; format: cell-based
# MERS-CoV = settings: in vitro, dose of 500 μM; cited from earlier work
structure (smiles),measurement,setting,value
NCCCCN [putrescine],effect of exogenous polyamine on MHV titers,MHV-A59 [1],modestly reduced viral titers
same,rescue of MHV replication in DFMO-treated cells,MHV-A59 [1],rescued virus replication to untreated levels
same,infectivity of MHV after direct incubation,MHV [2],titers were unchanged
"Cc1cc(C2CCCCC2)n(O)c(=O)c1 [CPX, ciclopirox]",MHV replication,MHV-A59 [1],significantly reduced MHV replication in a dose-dependent manner
same,cytotoxicity,BHK-R cells,cytotoxicity was minimal
"Cc1c(O)c(=O)ccn1C [DEF, deferiprone]",MHV replication,MHV-A59 [1],significantly reduced MHV replication in a dose-dependent manner
same,cytotoxicity,BHK-R cells,cytotoxicity was minimal
NCCCCCCCN=C(N)N [GC7],MHV replication,MHV-A59 [1],significantly reduced MHV replication in a dose-dependent manner
same,IC50,MHV-A59 [1],7.4 µM
same,cytotoxicity,BHK-R cells,cytotoxicity was minimal
NCCCNCCCCNCCCN [spermine],effect of exogenous polyamine on MHV titers,MHV-A59 [1],modestly reduced viral titers; also recorded: reduces virus replication
same,rescue of MHV replication in DFMO-treated cells,MHV-A59 [1],rescued virus replication to untreated levels
same,infectivity of MHV after direct incubation,MHV [2],titers were unchanged
same,cytotoxicity,BHK-R cells,significant cytotoxicity
"NCCCC(N)(C(=O)O)C(F)F (stereo not shown) [DFMO, difluoromethylornithine]",reduction of SARS-CoV-2 genomes,SARS-CoV-2,greater than 50 fold
same,MHV genome levels in supernatant (qPCR),MHV-A59 [1],reduced genome levels
same,MHV production after repeated versus single dosing,MHV-A59 [1],repeated dosing is as effective as a single drug treatment
same,MHV titers over several rounds of replication,MHV-A59 [1],reduced viral titers compared to no treatment group up to 72 h
same,antiviral effect after drug removal,MHV-A59 [1],completely reversed
same,specific infectivity (genomes per PFU),MHV-A59 [1],increased the ratio of genomes to titer
same,IC50,MHV-A59 [1],380 µM
same,IC50,MHV-A59 [3],~7 µM and 7 µM
same,infectivity of MHV after direct incubation,MHV [2],titers were unchanged
same,plaque size,"MHV-A59 [4]; BHK-R cells, DFMO in overlay media at time of infection",no changes in plaque size
same,plaque area,"MHV-A59 [4]; HeLa-R cells, DFMO at time of infection","small, though statistically insignificant change"
same,attachment and plaque formation,MHV [5],significantly inhibited
same,bound viral genomes (qRT-PCR),MHV [5],significantly reduced
same,HCoV-NL63 attachment,HCoV-NL63,attachment was sensitive to DFMO treatment
same,cellular attachment of SARS-CoV-2 pseudoparticles,[6],reduction in cellular attachment of SARS-CoV-2 pseudoparticles in a dose-dependent manner
same,polyamine levels by TLC,cellular polyamines; BHK-R cells,depleted polyamines
same,polyamine levels by TLC,"cellular polyamines; HeLa-R cells, DENSpm at 10 μM",reduced polyamines
same,polyamine levels by TLC,"cellular polyamines; Vero-E6 cells, 750 μM to 5 mM DFMO",successfully depleted polyamines
same,toxicity,HeLa-R cells,not toxic to these cells
same,sensitivity of MERS-CoV,MERS-CoV,sensitive
NCCCCNCCCN [spermidine],effect of exogenous polyamine on MHV titers,MHV-A59 [1],modestly reduced viral titers; also recorded: does not inhibit or restrict virus replication
same,rescue of MHV replication in DFMO-treated cells,MHV-A59 [1],rescued virus replication to untreated levels
same,infectivity of MHV after direct incubation,MHV [2],titers were unchanged
